{"source": "patent US6555139B2", "about": "“Preparation of micron-size pharmaceutical particles by microfluidization” (Wockhardt Europe Limited, priority 1999, dated 2003)", "key": {"[1]": {"test": "Particle size distribution (PSD) of suspensions before/after microfluidization (Mastersizer)", "format": "physicochemical", "conditions": "5,000 psi, 3 passes", "source_text": "The Microfluidizer M-210 EH operates at higher pressures up to 35000 psi. The process stream enters the inlet reservoir. An air-powered intensifier pumping system accelerates the process stream, propelling into a processing zone called the interaction chamber. This chamber consists of microchannels, where the process stream separates into two. It changes direction and collides into a single stream again. […] Then product is accelerated to a high velocity and is subjected to shear, impact and cavitation. This causes particles and droplets to reduce in size as small as sub-micron depending upon the processing pressure and number of cycles applied. […] After completion of the microfluidization step, the sized particles in suspension pass through pipe 18 out of the system, with a heat exchanger 20 shown in a preferred system to enable on-line drying of the micro-suspension resulting from the microfluidization. The microfluidization process is most conveniently practiced with operating pressures between 2000 pounds per square inch (psi) and 20,000 psi to provide resulting particle sizes of the dimensions most appropriate for pharmaceutical dosing. The process will often progress with increasingly higher operating pressures in each subsequent pass, such as using from 2,000 to 6,000 psi in a first pass, 5,000 to 11,000 psi in a second pass, and from 9,000 to 20,000 psi in a third pass (if needed). Each pass will generally be higher than a previous pass, or operating pressures may remain constant or decrease, depending upon the specific results desired in the processing."}, "[2]": {"conditions": "cited from earlier work"}, "[3]": {"conditions": "micronized drug + Klucel LF + micronized β-cyclodextrin + Cremophor RH-40 + water"}, "[4]": {"conditions": "micronized drug + Klucel LF + unmicronized β-cyclodextrin + Cremophor RH-40 + water"}}, "note": "Read-outs that look alike come from different tables or passages of the source.", "data": [{"smiles": "CCc1cccc2c3c([nH]c12)C(CC)(CC(=O)O)OCC3", "note": "(stereo not drawn) [Etodolac, etodolac]", "values": [{"measurement": "solubility", "setting": "pH 1", "result": 0.001, "unit": "%"}, {"measurement": "solubility", "setting": "pH 5", "result": 0.01, "unit": "%"}, {"measurement": "PSD of Output Material After Processing, d (0.9)", "setting": "[1]; [3]", "result": 12.15, "unit": "μm"}]}, {"smiles": "CCOC(=O)C1=C(C)NC(C)=C(C(=O)OC)C1c1cccc(Cl)c1Cl", "note": "(stereo not drawn) [Felodipine, felodipine]", "values": [{"measurement": "absorption from the colon", "setting": "[2]", "result": "impaired absorption from the colon"}]}, {"smiles": "Cc1cnc(C(=O)NCCc2ccc(S(=O)(=O)NC(=O)NC3CCCCC3)cc2)cn1", "note": "[Glipizide, glipizide]", "values": [{"measurement": "PSD of Output Material After Processing, d (0.5)", "setting": "[1]; [3]", "result": 5.72, "unit": "μm"}, {"measurement": "PSD of Output Material After Processing, d (0.9)", "setting": "[1]; [3]", "result": 12.06, "unit": "μm"}, {"measurement": "PSD of Output Material After Processing, d (0.5)", "setting": "[1]; [4]", "result": 3.84, "unit": "μm"}, {"measurement": "PSD of Output Material After Processing, d (0.9)", "setting": "[1]; [4]", "result": 7.52, "unit": "μm"}]}, {"smiles": "CCOC(=O)C1=C(C)NC(C)=C(C(=O)OC)C1c1cccc([N+](=O)[O-])c1", "note": "(stereo not drawn) [nitrendipine]", "values": [{"measurement": "absorption from the colon", "setting": "[2]", "result": "impaired absorption from the colon"}]}]}
